Test results published in patent publication US4918054A, “Antibiotics called `chloropolysporins B and C`, a process for their preparation, and their therapeutic and veterinary use” (Sankyo Company Limited, priority 1985, dated 1990).
In brackets after ≈: the same amount, converted by molar mass.

Experiments:
[1] = tested on: Staphylococcus aureus FDA 209P JC-1; assay: MIC, two-fold agar dilution method, Mueller-Hinton agar; format: cell-based
[2] = tested on: Staphylococcus aureus SANK 70175; assay: as above; format: cell-based
[3] = tested on: Staphylococcus aureus Smith; assay: as above; format: cell-based
[4] = tested on: Staphylococcus epidermidis SANK 71575; assay: as above; format: cell-based
[5] = tested on: Enterococcus faecalis SANK 71778; assay: as above; format: cell-based
[6] = tested on: Bacillus subtilis PCI 219; assay: as above; format: cell-based
[7] = tested on: Mycobacterium smegmatis ATCC 607; assay: as above; format: cell-based
[8] = tested on: Escherichia coli NIHJ JC-2; assay: as above; format: cell-based
[9] = tested on: Klebsiella pneumoniae PCI 602; assay: as above; format: cell-based
[10] = tested on: Pseudomonas aeruginosa NCTC 10490; assay: as above; format: cell-based
[11] = tested on: Serratia marcescens SANK 73060; assay: as above; format: cell-based
[12] = tested on: Proteus mirabilis SANK 70461; assay: as above; format: cell-based
Bacteroides fragilis = assay: MIC against anaerobic bacteria, GAM agar medium; format: cell-based
Eubacterium cylindroides = assay: MIC against anaerobic bacteria, GAM agar medium; format: cell-based
[13] = tested on: Fusobacterium necrophorum; assay: MIC against anaerobic bacteria, GAM agar medium; format: cell-based
[14] = tested on: Peptostreptococcus saccharoliticus; assay: MIC against anaerobic bacteria, GAM agar medium; format: cell-based
[15] = tested on: Peptostreptococcus parvulus; assay: MIC against anaerobic bacteria, GAM agar medium; format: cell-based
Propionibacterium acnes = assay: MIC against anaerobic bacteria, GAM agar medium; format: cell-based
Clostridium symbiosum = assay: MIC against anaerobic bacteria, GAM agar medium; format: cell-based
Clostridium ramosum = assay: MIC against anaerobic bacteria, GAM agar medium; format: cell-based
Clostridium perfringens = format: cell-based; conditions: anaerobic, GAM agar
Clostridium difficile = assay: MIC against anaerobic bacteria, GAM agar medium; format: cell-based
Procedure: The minimal inhibitory concentrations (MIC) of chloropolysporins B and C against various gram-positive and gram-negative bacteria were determined by the two-fold agar dilution method, using a Mueller-Hinton agar medium (produced by Difco); the MIC against anaerobic bacteria was determined using a GAM agar medium (produced by Nissui).

Solubility in solvents = format: physicochemical

| Compound | MIC [1] [µg/mL] | MIC [2] [µg/mL] | MIC [3] [µg/mL] | MIC [4] [µg/mL] | MIC [5] [µg/mL] | MIC [6] [µg/mL] | MIC [7] [µg/mL] | MIC [8] [µg/mL] | MIC [9] [µg/mL] | MIC [10] [µg/mL] | MIC [11] [µg/mL] | MIC [12] [µg/mL] | MIC (Bacteroides fragilis) [µg/mL] | MIC (Eubacterium cylindroides) [µg/mL] | MIC [13] [µg/mL] | MIC [14] [µg/mL] | MIC [15] [µg/mL] | MIC (Propionibacterium acnes) [µg/mL] | MIC (Clostridium symbiosum) [µg/mL] | MIC (Clostridium ramosum) [µg/mL] | other results |
| --- | --- | --- | --- | --- | --- | --- | --- | --- | --- | --- | --- | --- | --- | --- | --- | --- | --- | --- | --- | --- | --- |
| CNC(C(=O)NC1C(=O)NC(c2ccc(O)c(Cl)c2)C(=O)NC2C(=O)NC3C(=O)NC(C(=O)NC(C(=O)O)c4cc(O)cc(O)c4-c4cc3ccc4O)C(OC3CC(N)C(O)C(C)O3)c3ccc(c(Cl)c3)Oc3cc2cc(c3OC2OC(CO)C(O)C(O)C2O)Oc2ccc(cc2Cl)C1OC1OC(CO)C(O)C(O)C1O)c1ccc(OC2OC(C)C(O)C(O)C2O)cc1 (stereo not shown) [Chloropolysporin B, chloropolysporin B] | 1.56 (≈ 0.844 µM) | 3.13 (≈ 1.69 µM) | 12.5 (≈ 6.76 µM) | 3.13 (≈ 1.69 µM) | 1.56 (≈ 0.844 µM) | 0.78 (≈ 0.422 µM) | 25.0 (≈ 13.5 µM) | > 100 | > 100 | > 100 | > 100 | > 100 | > 100 | 6.25 (≈ 3.38 µM) | > 100 | 6.25 (≈ 3.38 µM) | 0.78 (≈ 0.422 µM) | 0.78 (≈ 0.422 µM) | 1.56 (≈ 0.844 µM) | 1.56 (≈ 0.844 µM) | MIC (Clostridium perfringens): 0.20 µg/mL (≈ 0.108 µM); MIC (Clostridium difficile): 0.78 µg/mL (≈ 0.422 µM); solubility in acetone (Solubility in solvents; as its sulfate): sparingly soluble; solubility in benzene (Solubility in solvents; as its sulfate): insoluble; solubility in chloroform (Solubility in solvents; as its sulfate): insoluble; solubility in ethyl acetate (Solubility in solvents; as its sulfate): insoluble; solubility in methanol (Solubility in solvents; as its sulfate): soluble; solubility in water (Solubility in solvents; as its sulfate): soluble; solubility in water (Solubility in solvents; free bases): insoluble in water |
| CNC(C(=O)NC1C(=O)NC(c2ccc(O)c(Cl)c2)C(=O)NC2C(=O)NC3C(=O)NC(C(=O)NC(C(=O)O)c4cc(O)cc(O)c4-c4cc3ccc4O)C(OC3CC(N)C(O)C(C)O3)c3ccc(c(Cl)c3)Oc3cc2cc(c3OC2OC(CO)C(O)C(O)C2O)Oc2ccc(cc2Cl)C1OC1OC(CO)C(O)C(O)C1O)c1ccc(O)cc1 (stereo not shown) [Chloropolysporin C, chloropolysporin C] | 1.56 (≈ 0.916 µM) | 1.56 (≈ 0.916 µM) | 6.25 (≈ 3.67 µM) | 3.13 (≈ 1.84 µM) | 1.56 (≈ 0.916 µM) | 0.78 (≈ 0.458 µM) | 12.5 (≈ 7.34 µM) | > 100 | > 100 | > 100 | > 100 | > 100 | > 100 | 3.13 (≈ 1.84 µM) | > 100 | 3.13 (≈ 1.84 µM) | 0.39 (≈ 0.229 µM) | 0.39 (≈ 0.229 µM) | 0.39 (≈ 0.229 µM) | 1.56 (≈ 0.916 µM) | MIC (Clostridium perfringens): 0.10 µg/mL (≈ 0.0587 µM); MIC (Clostridium difficile): 0.39 µg/mL (≈ 0.229 µM); solubility in acetone (Solubility in solvents; as its sulfate): sparingly soluble; solubility in benzene (Solubility in solvents; as its sulfate): insoluble; solubility in chloroform (Solubility in solvents; as its sulfate): insoluble; solubility in ethyl acetate (Solubility in solvents; as its sulfate): insoluble; solubility in methanol (Solubility in solvents; as its sulfate): soluble; solubility in water (Solubility in solvents; as its sulfate): soluble; solubility in water (Solubility in solvents; free bases): insoluble in water |
